Assays:
MLL-AF9 AML cells = experiment: Survival of AML-bearing mice treated with iCT with or without DON; format: in vivo, mouse
Description: Arrows show the range where synergism occurs. […] FIG. 5C provides the chemical structure of glutamine and 6-diazo-5-oxo-L-norleucine (DON). FIGS. 5D-5E show survival of AML-bearing mice treated with iCT (days 7-11) with or without short term 6-diazo-5-oxo-L-norleucine (DON; 0.3 mg/kg), showing the treatment schedule (FIG. 5D) and Kaplan-Meier survival curves (FIG. 5E). iCT+DON: both given at same time; iCT+DON^+3: DON started 3 days after first dose of iCT. […]
To test this hypothesis, a mouse model was used in which cells express MLLAF9, driving leukemia development, luciferase, and GFP. The mouse model allows real-time monitoring of leukemic burden through bioluminescence imaging, and therefore identification of the moment of maximal response to iCT. Bone marrow cells derived from terminally ill primary mice were intravenously transplanted into secondary wildtype recipients, leading to the development of a very aggressive disease that can be monitored in real time since only AML cells express luciferase and GFP. Mice were treated with a chemotherapy regimen that closely mimics the one used in patients (cytarabine for 5 days and doxorubicin for the first 3 days) or vehicle, and followed disease progression using bioluminescence imaging (FIG. 6A). It was discovered that the amount of maximal response occurs 3-4 days after the last dose of chemotherapy (FIG. 6B). This means that at this moment, after the selection pressure of chemotherapy, massive neighboring cell death, and possibly other stress factors such as niche alteration, certain cells have adapted and are now started to grow again.
(§1) To confirm that glutamine metabolism plays a functional role in protecting AML cells from chemotherapy, human AML cells (THP1) were treated in culture with iCT in combination with 6-diazo-5-oxo-L-norleucine (DON), a glutamine analog and antagonist that inhibits all glutamine-dependent enzymes (FIG. 5C). […] Mice carrying AML were then treated in combination with DON at different regimens (FIG. 5D).

THP1 human AML cell line = experiment: Viability of human AML cells (THP1) treated in culture with iCT in combination with DON; format: cell-based; settings: different doses of iCT (cytarabine+doxorubicin) in combination with DON, 72 h in vitro, FIG. 5A
Description: Arrows show the range where synergism occurs. […] FIG. 5C provides the chemical structure of glutamine and 6-diazo-5-oxo-L-norleucine (DON). FIGS. 5D-5E show survival of AML-bearing mice treated with iCT (days 7-11) with or without short term 6-diazo-5-oxo-L-norleucine (DON; 0.3 mg/kg), showing the treatment schedule (FIG. 5D) and Kaplan-Meier survival curves (FIG. 5E). iCT+DON: both given at same time; iCT+DON^+3: DON started 3 days after first dose of iCT. FIGS. 5F-5G show survival of AML-bearing mice treated with iCT (days 7-11) with or without continuous DON ([…]), showing the treatment schedule (FIG. 5F) and Kaplan-Meier survival curves (FIG. 5G). iCT+DON^post: DON started after last dose of iCT.
as §1

[1] = Tolerability of daily DON injections in mice carrying AML; format: in vivo, mouse; settings: daily injections extended for more than 5 days
Description: as §1

Compound: [N-]=[N+]=CC(=O)CC[C@H](N)C(=O)O [DON, 6-diazo-5-oxo-L-norleucine]
- survival of AML-bearing mice, DON given together with iCT, versus iCT alone (MLL-AF9 AML cells; DON 0.3 mg/kg daily for 5 days at the same time as iCT (cytarabine 100 mg/kg 5 days + doxorubicin 3 mg/kg first 3 days), FIG. 5B/5E): did not extend survival
- survival of AML-bearing mice, DON short treatment (MLL-AF9 AML cells; DON daily for 5 days at 0.3 mg/kg, FIG. 5B/5E): did not have much effect
- interaction between iCT and DON treatment on survival (MLL-AF9 AML cells; DON every other day at 0.3 mg/kg, extended treatment after iCT, FIG. 5G): clear synergism
- survival of AML-bearing mice, DON every other day after iCT, versus iCT alone (MLL-AF9 AML cells; DON every other day at 0.3 mg/kg, started after last dose of iCT (iCT+DONpost), p=0.0019, FIG. 5F/5G): increased substantially
- survival of AML-bearing mice, DON delayed 3 days after first dose of iCT (MLL-AF9 AML cells; iCT+DON+3: short-term DON 0.3 mg/kg started 3 days after first dose of iCT, spanning the moment of maximal response, FIG. 5E): a clear survival benefit was achieved
- interaction of iCT and DON on viability of THP1 cells (THP1 human AML cell line): synergy at several doses
- lethality of daily DON injections [1]: proved lethal

Source: patent publication US20210177880A1, “METHODS AND COMPOSITIONS FOR TREATING ACUTE MYELOID LEUKEMIA” (President and Fellows of Harvard College, priority 2017, published 2021)
